Reference: the supplement of paper PMC4862054

test system: HCC1143; test: normalised response (% of control), CellTox Green; higher = less cell death (100 = DMSO, 0 = benzethonium chloride kill control); settings: incubation time: 72 h
In short: (§1)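 Compound was dispensed into 384-well plates at 5 concentrations in 10-fold steps spanning a 10,000-fold range specific to that compound. Breast cancer cell lines were added as 20 µl suspension and left for 72 h before CellTox Green fluorescence (485/520 nm) and then CellTiter-Glo luminescence, read after 10 min at room temperature. Each reported value is the normalised signal at one concentration, with 0.1 % DMSO set at 100 and a positive kill control at 0 on each plate.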

Structure (SMILES) | normalised response [%]
N#Cc1ccc(COC[C@H]2O[C@@H](n3c(NCc4ccc(Cl)c(Cl)c4)nc4c(N)ncnc43)[C@H](O)[C@@H]2O)cc1 (1000 nM) | 115
N#Cc1ccc(COC[C@H]2O[C@@H](n3c(NCc4ccc(Cl)c(Cl)c4)nc4c(N)ncnc43)[C@H](O)[C@@H]2O)cc1 (10000 nM) | 79.2
COc1cc(OC2CCN(C)CC2)ccc1Nc1ncc2c(n1)n(C1CCCC1)c(=O)n2C [AZ 3146] (1000 nM) | 87.6
COc1cc(OC2CCN(C)CC2)ccc1Nc1ncc2c(n1)n(C1CCCC1)c(=O)n2C [AZ 3146] (10000 nM) | 86.7
CN(C)c1nc(N(C)C)nc(N(C)C)n1 [Altretamine] (1000 nM) | 113
CN(C)c1nc(N(C)C)nc(N(C)C)n1 [Altretamine] (10000 nM) | 109
O=C(/C=C/c1cccc(S(=O)(=O)Nc2ccccc2)c1)NO [Belinostat] (1000 nM) | 100
O=C(/C=C/c1cccc(S(=O)(=O)Nc2ccccc2)c1)NO [Belinostat] (10000 nM) | 79.7
O=P1(N(CCCl)CCCl)NCCCO1 (stereo not drawn) [Cyclophosphamide] (40000 nM) | 71.3
C=C1C[C@@H]2[C@H](CC[C@]3(C)C(=O)CC[C@@H]23)[C@@]2(C)C=CC(=O)C=C12 [Exemestane] (1000 nM) | 108
C=C1C[C@@H]2[C@H](CC[C@]3(C)C(=O)CC[C@@H]23)[C@@]2(C)C=CC(=O)C=C12 [Exemestane] (10000 nM) | 112
COc1cc2ncnc(Nc3ccc(F)c(Cl)c3)c2cc1OCCCN1CCOCC1 [Gefitinib] (1000 nM) | 83.2
COc1cc2ncnc(Nc3ccc(F)c(Cl)c3)c2cc1OCCCN1CCOCC1 [Gefitinib] (10000 nM) | 113
O=C(Nc1ccncc1)C(=O)c1cn(Cc2ccc(Cl)cc2)c2ccccc12 [Indibulin] (1000 nM) | 93.6
O=C(Nc1ccncc1)C(=O)c1cn(Cc2ccc(Cl)cc2)c2ccccc12 [Indibulin] (10000 nM) | 121
NC(=O)c1ccc(I)c([N+](=O)[O-])c1 [Iniparib] (1000 nM) | 101
CCc1c2c(nc3ccc(OC(=O)N4CCC(N5CCCCC5)CC4)cc13)-c1cc3c(c(=O)n1C2)COC(=O)[C@]3(O)CC [Irinotecan] (1000 nM) | 96.6
CCc1c2c(nc3ccc(OC(=O)N4CCC(N5CCCCC5)CC4)cc13)-c1cc3c(c(=O)n1C2)COC(=O)[C@]3(O)CC [Irinotecan] (10000 nM) | 95.2
Oc1ccc2c(c1)CC[C@H](c1ccccc1)[C@@H]2c1ccc(OCCN2CCCC2)cc1 [Lasofoxifene] (1000 nM) | 112
Cc1ccc(NC(=O)c2ccc(CN3CCN(C)CC3)cc2)cc1Nc1nc(-c2cccnc2)cs1 [Masitinib] (1000 nM) | 99.5
Cc1ccc(NC(=O)c2ccc(CN3CCN(C)CC3)cc2)cc1Nc1nc(-c2cccnc2)cs1 [Masitinib] (10000 nM) | 96.5
O=C(Nc1cccnc1)N1CCC(Cc2cccc(Oc3ccc(C(F)(F)F)cn3)c2)CC1 [PF-3845] (1000 nM) | 97.7
COCC1(CO)C(=O)C2CCN1CC2 (stereo not drawn) [Prima-1 Met] (10000 nM) | 93
CN(C)CCOc1ccc(/C(=C(/CCCl)c2ccccc2)c2ccccc2)cc1 [Toremifene] (1000 nM) | 118

test system: HCC1937; test: as above; settings: incubation time: 72 h
In short: as §1

Structure (SMILES) | normalised response [%]
N#Cc1ccc(COC[C@H]2O[C@@H](n3c(NCc4ccc(Cl)c(Cl)c4)nc4c(N)ncnc43)[C@H](O)[C@@H]2O)cc1 (1000 nM) | 90.4
N#Cc1ccc(COC[C@H]2O[C@@H](n3c(NCc4ccc(Cl)c(Cl)c4)nc4c(N)ncnc43)[C@H](O)[C@@H]2O)cc1 (10000 nM) | 106
COc1cc(OC2CCN(C)CC2)ccc1Nc1ncc2c(n1)n(C1CCCC1)c(=O)n2C [AZ 3146] (1000 nM) | 88.2
COc1cc(OC2CCN(C)CC2)ccc1Nc1ncc2c(n1)n(C1CCCC1)c(=O)n2C [AZ 3146] (10000 nM) | -6.06
CN(C)c1nc(N(C)C)nc(N(C)C)n1 [Altretamine] (1000 nM) | 118
CN(C)c1nc(N(C)C)nc(N(C)C)n1 [Altretamine] (10000 nM) | 104
O=C(/C=C/c1cccc(S(=O)(=O)Nc2ccccc2)c1)NO [Belinostat] (1000 nM) | 117
O=C(/C=C/c1cccc(S(=O)(=O)Nc2ccccc2)c1)NO [Belinostat] (10000 nM) | 80.3
O=P1(N(CCCl)CCCl)NCCCO1 (stereo not drawn) [Cyclophosphamide] (4000 nM) | 124
O=P1(N(CCCl)CCCl)NCCCO1 (stereo not drawn) [Cyclophosphamide] (40000 nM) | 102
C=C1C[C@@H]2[C@H](CC[C@]3(C)C(=O)CC[C@@H]23)[C@@]2(C)C=CC(=O)C=C12 [Exemestane] (1000 nM) | 121
C=C1C[C@@H]2[C@H](CC[C@]3(C)C(=O)CC[C@@H]23)[C@@]2(C)C=CC(=O)C=C12 [Exemestane] (10000 nM) | 115
COc1cc2ncnc(Nc3ccc(F)c(Cl)c3)c2cc1OCCCN1CCOCC1 [Gefitinib] (1000 nM) | 123
COc1cc2ncnc(Nc3ccc(F)c(Cl)c3)c2cc1OCCCN1CCOCC1 [Gefitinib] (10000 nM) | 98.2
O=C(Nc1ccncc1)C(=O)c1cn(Cc2ccc(Cl)cc2)c2ccccc12 [Indibulin] (1000 nM) | 68.1
O=C(Nc1ccncc1)C(=O)c1cn(Cc2ccc(Cl)cc2)c2ccccc12 [Indibulin] (10000 nM) | 99
NC(=O)c1ccc(I)c([N+](=O)[O-])c1 [Iniparib] (1000 nM) | 63.7
NC(=O)c1ccc(I)c([N+](=O)[O-])c1 [Iniparib] (10000 nM) | 107
CCc1c2c(nc3ccc(OC(=O)N4CCC(N5CCCCC5)CC4)cc13)-c1cc3c(c(=O)n1C2)COC(=O)[C@]3(O)CC [Irinotecan] (1000 nM) | 123
CCc1c2c(nc3ccc(OC(=O)N4CCC(N5CCCCC5)CC4)cc13)-c1cc3c(c(=O)n1C2)COC(=O)[C@]3(O)CC [Irinotecan] (10000 nM) | 55.9
Oc1ccc2c(c1)CC[C@H](c1ccccc1)[C@@H]2c1ccc(OCCN2CCCC2)cc1 [Lasofoxifene] (100 nM) | 113
Oc1ccc2c(c1)CC[C@H](c1ccccc1)[C@@H]2c1ccc(OCCN2CCCC2)cc1 [Lasofoxifene] (1000 nM) | 72.2
Cc1ccc(NC(=O)c2ccc(CN3CCN(C)CC3)cc2)cc1Nc1nc(-c2cccnc2)cs1 [Masitinib] (1000 nM) | 113
Cc1ccc(NC(=O)c2ccc(CN3CCN(C)CC3)cc2)cc1Nc1nc(-c2cccnc2)cs1 [Masitinib] (10000 nM) | 88.7
O=C(Nc1cccnc1)N1CCC(Cc2cccc(Oc3ccc(C(F)(F)F)cn3)c2)CC1 [PF-3845] (1000 nM) | 124
CNC(=O)c1cc(Oc2ccc(NC(=O)Nc3ccc(Cl)c(C(F)(F)F)c3)c(F)c2)ccn1 [Regorafenib] (1000 nM) | 122
CN(C)CCOc1ccc(/C(=C(/CCCl)c2ccccc2)c2ccccc2)cc1 [Toremifene] (1000 nM) | 110
CN(C)CCOc1ccc(/C(=C(/CCCl)c2ccccc2)c2ccccc2)cc1 [Toremifene] (10000 nM) | -3.77

test system: CAL-85-1; test: as above; settings: incubation time: 72 h
In short: as §1

Structure (SMILES) | normalised response [%]
N#Cc1ccc(COC[C@H]2O[C@@H](n3c(NCc4ccc(Cl)c(Cl)c4)nc4c(N)ncnc43)[C@H](O)[C@@H]2O)cc1 (1000 nM) | 97.6
COc1cc(OC2CCN(C)CC2)ccc1Nc1ncc2c(n1)n(C1CCCC1)c(=O)n2C [AZ 3146] (1000 nM) | 103
COc1cc(OC2CCN(C)CC2)ccc1Nc1ncc2c(n1)n(C1CCCC1)c(=O)n2C [AZ 3146] (10000 nM) | 82.7
CN(C)c1nc(N(C)C)nc(N(C)C)n1 [Altretamine] (1000 nM) | 102
CN(C)c1nc(N(C)C)nc(N(C)C)n1 [Altretamine] (10000 nM) | 87.6
O=C(/C=C/c1cccc(S(=O)(=O)Nc2ccccc2)c1)NO [Belinostat] (1000 nM) | 51.1
O=C(/C=C/c1cccc(S(=O)(=O)Nc2ccccc2)c1)NO [Belinostat] (10000 nM) | -19.3
O=P1(N(CCCl)CCCl)NCCCO1 (stereo not drawn) [Cyclophosphamide] (4000 nM) | 100
O=P1(N(CCCl)CCCl)NCCCO1 (stereo not drawn) [Cyclophosphamide] (40000 nM) | 92.4
C=C1C[C@@H]2[C@H](CC[C@]3(C)C(=O)CC[C@@H]23)[C@@]2(C)C=CC(=O)C=C12 [Exemestane] (1000 nM) | 99
C=C1C[C@@H]2[C@H](CC[C@]3(C)C(=O)CC[C@@H]23)[C@@]2(C)C=CC(=O)C=C12 [Exemestane] (10000 nM) | 71.2
COc1cc2ncnc(Nc3ccc(F)c(Cl)c3)c2cc1OCCCN1CCOCC1 [Gefitinib] (1000 nM) | 79.5
COc1cc2ncnc(Nc3ccc(F)c(Cl)c3)c2cc1OCCCN1CCOCC1 [Gefitinib] (10000 nM) | 45.8
O=C(Nc1ccncc1)C(=O)c1cn(Cc2ccc(Cl)cc2)c2ccccc12 [Indibulin] (1000 nM) | 48.8
O=C(Nc1ccncc1)C(=O)c1cn(Cc2ccc(Cl)cc2)c2ccccc12 [Indibulin] (10000 nM) | 16.7
NC(=O)c1ccc(I)c([N+](=O)[O-])c1 [Iniparib] (1000 nM) | 101
NC(=O)c1ccc(I)c([N+](=O)[O-])c1 [Iniparib] (10000 nM) | 142
CCc1c2c(nc3ccc(OC(=O)N4CCC(N5CCCCC5)CC4)cc13)-c1cc3c(c(=O)n1C2)COC(=O)[C@]3(O)CC [Irinotecan] (1000 nM) | 93.1
CCc1c2c(nc3ccc(OC(=O)N4CCC(N5CCCCC5)CC4)cc13)-c1cc3c(c(=O)n1C2)COC(=O)[C@]3(O)CC [Irinotecan] (10000 nM) | 64.6
Oc1ccc2c(c1)CC[C@H](c1ccccc1)[C@@H]2c1ccc(OCCN2CCCC2)cc1 [Lasofoxifene] (100 nM) | 82.2
Oc1ccc2c(c1)CC[C@H](c1ccccc1)[C@@H]2c1ccc(OCCN2CCCC2)cc1 [Lasofoxifene] (1000 nM) | 69.3
Cc1ccc(NC(=O)c2ccc(CN3CCN(C)CC3)cc2)cc1Nc1nc(-c2cccnc2)cs1 [Masitinib] (1000 nM) | 98.9
Cc1ccc(NC(=O)c2ccc(CN3CCN(C)CC3)cc2)cc1Nc1nc(-c2cccnc2)cs1 [Masitinib] (10000 nM) | 76.8
O=C(Nc1cccnc1)N1CCC(Cc2cccc(Oc3ccc(C(F)(F)F)cn3)c2)CC1 [PF-3845] (1000 nM) | 106
COCC1(CO)C(=O)C2CCN1CC2 (stereo not drawn) [Prima-1 Met] (10000 nM) | 74.2
CNC(=O)c1cc(Oc2ccc(NC(=O)Nc3ccc(Cl)c(C(F)(F)F)c3)c(F)c2)ccn1 [Regorafenib] (1000 nM) | 103
